Values quoted from earlier work in US20130142871A1, “ORAL DOSAGE FORM OF DEFERASIROX” (Ratiopharm GmbH, priority 2010, published 2013).

Details: see WO 2007/045445, page 2, third paragraph

solubility in water: poorly soluble in water
Compound: O=C(O)c1ccc(-n2nc(-c3ccccc3O)nc2-c2ccccc2O)cc1 [Deferasirox, 4-[(3Z,5E)-3,5-bis(6-oxo-1-cyclohexa-2,4-dienylidene)-1,2,4-triazolidine-1-yl]benzoic acid]
